Measurements published in patent US20140315972A1, “RS)-2-(2-oxo-4-phenylpyrrolidin-1-yl)acetamide compound having modulatory activity with a commensurate effect, pharmaceutical substance (variants) and its application, composition (variants) thereof” (priority 2011, published 2014).

Legend:
Type in all cases: in vivo
rats = assay: 14-day immobilization in antiorthostatic position (Ds), thymus, spleen, adrenal mass ratios Kt; conditions: Ds-conditions; for S/A: spleen/adrenals ratio (mg/100 g baseline body weight); for S/T: spleen/thymus ratio (mg/100 g baseline body weight); for T/A: thymus/adrenals ratio (mg/100 g baseline body weight)
mice [1] = assay: Duration of swimming in cold (2° C.) and normal (25° C.) water; conditions: single dose 2.5 mg/kg i.p.
Experimental: Stimulatory effect on the duration of swimming in cold (2° C.) and normal (25° C.) water (Table 8.1-8.1.1) of Phenotropil (25 and 50 mg/kg) compared with the control (distilled water) and Benzedrine (2.5 mg/kg) was studied in white outbred male mice (18-26 g) compared to control (distilled water) when intraperitoneally administered, 60 min after the administration and with a course administration for 4 weeks administration on day 28 (Table 8.1.2). […] At normal temperature of water, the effect of Benzedrine was not modified and stayed at 34%.
The advantage of psychomodulator Phenotropil is obvious both with the single dose and the course use, by the effect on physical performance and stability of the body, both in normal and more adverse temperature conditions.

mice [2] = assay: Benzedrine-induced stimulation of orientation-locomotor activity; conditions: mice; Benzedrine 3.0 mg/kg alone
Source text: In regard to influencing the effects of Benzedrine, Phenotropil also can provide, depending on the dose, the diametrically opposite activity when in combination with psychostimulants. This fact must be taken into account in combined use of various pharmacological agents.

rabbits = assay: Transcallosal stimulation induced potential (TSIP); conditions: Piracetam 300-500, Pyritinol 50-150, Phenotropil 25-300 mg/kg

For NCC(CC(=O)O)c1ccccc1 (stereo not drawn) [Phenibut (−)], which S/A (rats; 50 mg/kg) is on record?
The S/A was 12.0 ± 0.3.

And the S/T (rats; 50 mg/kg)?
Its S/T is 4.8 ± 0.3.

What about the T/A (rats; 50 mg/kg) of the same molecule?
The T/A was 2.5 ± 0.3.

Which Duration of swimming (mice [1]) does the source give for CC(N)Cc1ccccc1 (centres unmarked) [Benzedrine, reference compound] here?
The Duration of swimming was 160.70 ± 11.75 min.

And the Duration of swimming (mice [1]; water 2° C.)?
Its Duration of swimming is 1.60 ± 0.2 min.

And the “Number of pulses for 3 min.” value (mice [2])?
The value was 84.3 ± 7.9.

What about the “Number of stand-ups for 3 min.” value (mice [2]) of the same molecule?
Its value is 14.2 ± 1.8.

For CN1C(=O)CN=C(c2ccccc2)c2cc(Cl)ccc21 [Seduxen], which S/A (rats; 2 mg/kg) is on record?
Its S/A is 7.6 ± 0.2.

What about the S/T (rats; 2 mg/kg) of the same molecule?
The S/T was 3.6 ± 0.1.

And the T/A (rats; 2 mg/kg)?
The T/A was 2.2 ± 1.4.

With NCC(CC(=O)O)c1ccccc1 (centres unmarked) [phenibut] as the molecule, how does the S/A (rats; 50 mg/kg) read?
The S/A was 10.2 ± 0.3.

And the S/T (rats; 50 mg/kg)?
The S/T was 7.6 ± 0.2.

What about the T/A (rats; 50 mg/kg) of the same molecule?
Its T/A is 1.3 ± 0.6.

What about the S/A (rats; 100 mg/kg) of the same molecule?
The S/A was 8.0 ± 0.1.

And the S/T (rats; 100 mg/kg)?
Its S/T is 4.7 ± 0.1.

What about the T/A (rats; 100 mg/kg) of the same molecule?
The T/A was 1.7 ± 0.1.

For Cc1ncc(CSSCc2cnc(C)c(O)c2CO)c(CO)c1O [Pyritinol], which “TSIP P1 + N1 amplitude” value (rabbits) is on record?
Its value is “+ (amplitude increase by less than 50%)”.

And the “TSIP component N1 amplitude” value (rabbits)?
Its value is “+ (amplitude increase by less than 50%)”.

And the “TSIP component P1 amplitude” value (rabbits)?
Its value is “+ (amplitude increase by less than 50%)”.

What about the “TSIP component P2 amplitude” value (rabbits) of the same molecule?
Its value is “+ (amplitude increase by less than 50%)”.

What does the source list for NCC(CC(=O)O)c1ccccc1 (stereo not drawn) [Phenibut (+)]?
S/A (rats; 50 mg/kg): 13.0 ± 0.1; S/T (rats; 50 mg/kg): 4.8 ± 0.1; T/A (rats; 50 mg/kg): 2.7 ± 0.1
